The test system of experiment [1] is M. smegmatis ΔmspA mutant MN01. The conditions noted are these: ΔmspA mutant compared with wild-type M. smegmatis; cited from earlier work.
For the next experiment, the system named is wild-type M. bovis BCG. Description: microbe, parasite or virus in culture. The format is cell-based. To be noted: for MIC: Mycobacterium tuberculosis variant bovis BCG, BCG, read-out: MIC WT.
In a further experiment the test system is M. smegmatis WT (SMR5). Description: microbe, parasite or virus in culture. The format is cell-based. The conditions noted are these: for MIC: Mycolicibacterium smegmatis.
Experiment [2] concerns M. smegmatis ms3747 mutant ML77. The format is cell-based. To be noted: ms3747 mutant versus wt M. smegmatis.
The test system of the next experiment is M. tuberculosis. The experiment in a line: Minimal inhibitory concentration of copper on Hartmans de Bond medium. Format: cell-based.
The subject of a further experiment is E. coli. The conditions noted are these: cited from earlier work.
Experiment [3] relates to M. smegmatis SMR5 with rv0194 expression vector pML655. The format is cell-based.
The subject of experiment [4] is M. smegmatis SMR5 wt (pMS2) and rv0194-expressing strain (pML655). Format: cell-based.

≈ marks a conversion by molar mass, not a printed value. Like-named read-outs stand apart in the source and are kept apart here.

As for `CC1(C)S[C@@H]2[C@H](NC(=O)[C@H](N)c3ccccc3)C(=O)N2[C@H]1C(=O)O` [Ampicillin], the “increased resistance toward ampicillin” value in experiment [1] is recorded as 16 fold. For the same compound, the MIC with wild-type M. bovis BCG is 62.5 µg/mL (≈ 179 µM); in the experiment with M. smegmatis WT (SMR5) (read-out: MIC WT), 125 µg/mL (≈ 358 µM).
Consider `O=C(N[C@H](CO)[C@H](O)c1ccc([N+](=O)[O-])cc1)C(Cl)Cl` [Chloramphenicol], for which the MIC in the experiment with wild-type M. bovis BCG turned out to be 8 µg/mL (≈ 24.8 µM); with M. smegmatis WT (SMR5) (read-out: MIC WT) it was 32 µg/mL (≈ 99 µM).
Consider `CC[C@H]1OC(=O)[C@H](C)[C@@H](O[C@H]2C[C@@](C)(OC)[C@@H](O)[C@H](C)O2)[C@H](C)[C@@H](O[C@@H]2O[C@H](C)C[C@H](N(C)C)[C@H]2O)[C@](C)(O)C[C@@H](C)C(=O)[C@H](C)[C@@H](O)[C@]1(C)O` [Erythromycin], for which the MIC in the experiment on M. smegmatis WT (SMR5) (read-out: MIC WT) was found to be 2.5 µg/mL (≈ 3.41 µM).
Turning to `CO[C@@H]1[C@@H](OC(N)=O)[C@@H](O)[C@H](Oc2ccc3c(O)c(NC(=O)c4ccc(O)c(CC=C(C)C)c4)c(=O)oc3c2C)OC1(C)C` [Novobiocin], the MIC in the experiment on M. smegmatis WT (SMR5) (read-out: MIC WT) was determined as 4 µg/mL (≈ 6.53 µM).
For the compound `[H]/N=C(/N)N[C@H]1[C@H](O)[C@@H](O)[C@H](O[C@@H]2O[C@@H](C)[C@](O)(C=O)[C@H]2O[C@@H]2O[C@@H](CO)[C@H](O)[C@@H](O)[C@@H]2NC)[C@@H](N/C(N)=N\[H])[C@@H]1O` [Streptomycin], the MIC in the experiment with wild-type M. bovis BCG stood at 0.5 µg/mL (≈ 0.86 µM).
Turning to `CN(C)[C@@H]1C(=O)C(C(N)=O)=C(O)[C@@]2(O)C(=O)C3=C(O)c4c(O)cccc4[C@@](C)(O)[C@H]3C[C@@H]12` [Tetracyclin], the “MIC WT” value was 2 µg/mL (≈ 4.5 µM) in the experiment on wild-type M. bovis BCG and 0.3 µg/mL (≈ 0.675 µM) in the experiment with M. smegmatis WT (SMR5).
As for `CN[C@H](CC(C)C)C(=O)N[C@H]1C(=O)N[C@@H](CC(N)=O)C(=O)N[C@H]2C(=O)N[C@H]3C(=O)N[C@H](C(=O)N[C@H](C(=O)O)c4cc(O)cc(O)c4-c4cc3ccc4O)[C@H](O)c3ccc(c(Cl)c3)Oc3cc2cc(c3O[C@@H]2O[C@H](CO)[C@@H](O)[C@H](O)[C@H]2O[C@H]2C[C@](C)(N)[C@H](O)[C@H](C)O2)Oc2ccc(cc2Cl)[C@H]1O` [Vancomycin], the MIC in the experiment on wild-type M. bovis BCG stood at 5 µg/mL (≈ 3.45 µM); with M. smegmatis WT (SMR5) (read-out: MIC WT), 1.25 µg/mL (≈ 0.863 µM).
With `[Cu]` [copper], the “copper concentration affecting growth, mutant relative to wt” value in experiment [2] is on record as “four-fold lower”. Besides, the “minimal inhibitory concentration of copper” value is “less than 24 μM” with M. tuberculosis and “≈ 3 mM” in the experiment on E. coli.
In the case of `CC[n+]1c(-c2ccccc2)c2cc(N)ccc2c2ccc(N)cc21` [ethidium bromide], in the experiment on M. smegmatis WT (SMR5) (read-out: MIC of ethidium bromide), the MIC was 1.25 µg/mL.
As for `COC(=O)[C@H]1[C@H]2C[C@@H]3c4[nH]c5cc(OC)ccc5c4CCN3C[C@H]2C[C@@H](OC(=O)c2cc(OC)c(OC)c(OC)c2)[C@@H]1OC` [reserpine], the “accumulation of ethidium bromide after addition of reserpine” value in experiment [3] was “quickly reached levels observed for wt M. smegmatis”. Also, the “growth with reserpine in the presence of ethidium bromide” value in experiment [4] was “completely inhibited growth of both strains”.
